Among the data in patent publication US12213969B2, “2-spiro-5- and 6-hydroxamic acid indanes as HDAC inhibitors” (Valo Health, Inc., priority 2016, dated 2025) are IC50 values, retold here.

This test concerns the target T1, Full length human recombinant HDAC6 protein (Homo sapiens, UniProt Q9UBN7).
T1 construct: made in house
T1 sequence (Q9UBN7 1-1215): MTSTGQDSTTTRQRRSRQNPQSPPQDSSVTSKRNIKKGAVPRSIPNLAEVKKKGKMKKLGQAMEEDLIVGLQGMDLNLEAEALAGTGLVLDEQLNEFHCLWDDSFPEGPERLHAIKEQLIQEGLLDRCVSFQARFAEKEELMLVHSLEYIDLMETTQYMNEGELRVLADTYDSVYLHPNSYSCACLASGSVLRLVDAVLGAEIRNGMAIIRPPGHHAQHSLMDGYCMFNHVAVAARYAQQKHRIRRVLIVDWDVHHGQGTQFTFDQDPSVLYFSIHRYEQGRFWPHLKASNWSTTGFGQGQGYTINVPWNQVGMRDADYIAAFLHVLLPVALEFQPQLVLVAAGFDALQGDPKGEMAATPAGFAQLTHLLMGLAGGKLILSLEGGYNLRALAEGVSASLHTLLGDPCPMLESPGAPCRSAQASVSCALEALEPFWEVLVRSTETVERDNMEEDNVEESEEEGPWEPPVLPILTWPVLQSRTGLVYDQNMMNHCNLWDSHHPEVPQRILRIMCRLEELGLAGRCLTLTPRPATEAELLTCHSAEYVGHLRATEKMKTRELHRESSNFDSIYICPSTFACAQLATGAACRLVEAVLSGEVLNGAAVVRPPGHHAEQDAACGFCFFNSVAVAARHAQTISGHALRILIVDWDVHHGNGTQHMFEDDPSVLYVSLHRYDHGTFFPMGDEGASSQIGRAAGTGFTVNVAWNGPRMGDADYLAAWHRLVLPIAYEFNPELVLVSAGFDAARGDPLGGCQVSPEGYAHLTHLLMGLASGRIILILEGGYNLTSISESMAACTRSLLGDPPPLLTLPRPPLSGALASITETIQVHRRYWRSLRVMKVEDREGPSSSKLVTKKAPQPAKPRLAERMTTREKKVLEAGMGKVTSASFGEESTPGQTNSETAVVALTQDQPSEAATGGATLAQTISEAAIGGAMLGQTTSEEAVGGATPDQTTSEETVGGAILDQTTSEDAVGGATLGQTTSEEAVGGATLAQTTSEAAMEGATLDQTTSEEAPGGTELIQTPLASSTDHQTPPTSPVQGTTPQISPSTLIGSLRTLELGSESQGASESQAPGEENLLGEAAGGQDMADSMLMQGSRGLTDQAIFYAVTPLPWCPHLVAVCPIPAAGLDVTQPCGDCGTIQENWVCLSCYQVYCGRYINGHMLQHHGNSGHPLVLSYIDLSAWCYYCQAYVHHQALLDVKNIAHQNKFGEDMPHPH
The test can be described thus: In vitro histone deacetylase assay: enzymatic HDAC6 electrophoretic mobility shift assay. The conditions noted are these: peptide substrate RHKK(Ac)-NH2 2 μM, enzyme 1 nM, 25° C., 12 concentrations; read-out: HDAC6 activity range (IC50). It counts as biochemical. As for the experimental part:
The enzymatic HDAC6 assay was performed using electrophoretic mobility shift assay. Full length human recombinant HDAC6 protein was expressed in baculoviral system and purified by affinity chromatography. The enzymatic reactions were assembled in 384 well plates in a total volume of 25 μL in a reaction buffer composing: 100 mM HEPES, pH 7.5, 25 mM KCl, 0.1% bovine serum albumin, 0.01% Triton X-100, 1% DMSO (from compounds) 2 μM of the fluorescently labeled peptide substrate and enzyme. The enzyme was added at a final concentration of 1 nM. The peptide substrate RHKK(Ac)-NH2 was used. The compounds were tested at 12 concentrations spaced by 3× dilution intervals. Negative control samples (0%-inhibition in the absence of inhibitor) and positive control samples (100%-inhibition) were assembled in replicates of four in each assay plate. The reactions were incubated at 25° C. and quenched by the addition of 45 μL of termination buffer (100 mM HEPES, pH 7.5, 0.01% Triton X-100, 0.05% SDS).
The terminated assay plates were analyzed on LabChip® 3000 microfluidic electrophoresis instrument (Perkin Elmer/Caliper Life Sciences). The fluorescence intensity of the electrophoretically separated de-acetylated product and substrate peptide was measured. Activity in each sample was determined as the product to sum ratio (PSR): P/(S+P), where P is the peak height of the product peptide and S is the peak height of the substrate peptide. Percent inhibition (Pinh) is determined using the following equation:
Pinh=(PSR0%−PSRinh)/(PSR0%−PSR100%)*100, where PSRinh is the product sum ratio in the presence of inhibitor, PSR0% is the average product sum ration in the absence of inhibitor and PSR100% is the average product sum ratio in 100%-inhibition control samples. The IC50 values of inhibitors were determined by fitting the %-inhibition curves with 4 parameter dose-response model using XLfit 4 software.
As set forth in Table-7, below, IC50 values are defined as follows: IC50≤0.01 μM (+++); IC50>0.01 μM and ≤0.05 μM (++); IC50>0.05 μM (+).
On the technique in general: A gel shift assay detects complexes by their altered migration in electrophoresis.

For the compound `CN1CC[C@]2(Cc3ccc(C(=O)NO)cc3C2)C1=O` [Compound I-1, (R)—N-hydroxy-1′-methyl-2′-oxo-1,3-dihydrospiro[indene-2,3′-pyrrolidine]-5-carboxamide], the IC50 fell in the range of 10 to 50 nM.

As for `CN1CC[C@@]2(Cc3ccc(C(=O)NO)cc3C2)C1=O` [Compound I-2, (S)—N-hydroxy-1′-methyl-2′-oxo-1,3-dihydrospiro[indene-2,3′-pyrrolidine]-5-carboxamide], the 50% inhibitory concentration (IC50) is 10 to 50 nM.

`CC(C)N1CC[C@]2(Cc3ccc(C(=O)NO)cc3C2)C1=O` [Compound I-3, (R)—N-hydroxy-1′-isopropyl-2′-oxo-1,3-dihydrospiro[indene-2,3′-pyrrolidine]-5-carboxamide]: the concentration for half-maximal inhibition (IC50) lay in the range of 10 to 50 nM.

For the compound `CC(C)N1CC[C@@]2(Cc3ccc(C(=O)NO)cc3C2)C1=O` [Compound I-4, (S)—N-hydroxy-1′-isopropyl-2′-oxo-1,3-dihydrospiro[indene-2,3′-pyrrolidine]-5-carboxamide], the half-inhibitory concentration (IC50) is greater than 50 nM.

As for `CCN1CC[C@]2(Cc3ccc(C(=O)NO)cc3C2)C1=O` [Compound I-5, (R)-1′-ethyl-N-hydroxy-2′-oxo-1,3-dihydrospiro[indene-2,3′-pyrrolidine]-5-carboxamide], the IC50 was in the range of 10 to 50 nM.

As to `CCN1CC[C@@]2(Cc3ccc(C(=O)NO)cc3C2)C1=O` [Compound I-6, (S)-1′-ethyl-N-hydroxy-2′-oxo-1,3-dihydrospiro[indene-2,3′-pyrrolidine]-5-carboxamide], the IC50 is greater than 50 nM.

`CC(C)CN1CC[C@]2(Cc3ccc(C(=O)NO)cc3C2)C1=O` [Compound I-7, (R)—N-hydroxy-1′-isobutyl-2′-oxo-1,3-dihydrospiro[indene-2,3′-pyrrolidine]-5-carboxamide]: the IC50 lay within 10 to 50 nM.

For `CC(C)CN1CC[C@@]2(Cc3ccc(C(=O)NO)cc3C2)C1=O` [Compound I-8, (S)—N-hydroxy-1′-isobutyl-2′-oxo-1,3-dihydrospiro[indene-2,3′-pyrrolidine]-5-carboxamide], the half-maximal inhibitory concentration (IC50) lay within 10 to 50 nM.

For `Cc1ccccc1CN1CC[C@]2(Cc3ccc(C(=O)NO)cc3C2)C1=O` [Compound I-9, (R)—N-hydroxy-1′-(2-methylbenzyl)-2′-oxo-1,3-dihydrospiro[indene-2,3′-pyrrolidine]-5-carboxamide], the concentration for half-maximal inhibition (IC50) was 10 to 50 nM.

Regarding `Cc1ccccc1CN1CC[C@@]2(Cc3ccc(C(=O)NO)cc3C2)C1=O` [Compound I-10, (S)—N-hydroxy-1′-(2-methylbenzyl)-2′-oxo-1,3-dihydrospiro[indene-2,3′-pyrrolidine]-5-carboxamide], the 50% inhibitory concentration (IC50) is 10 to 50 nM.

With `O=C(NO)c1ccc2c(c1)C[C@@]1(CCN(Cc3ccccc3)C1=O)C2` [Compound I-11, (R)-1′-benzyl-N-hydroxy-2′-oxo-1,3-dihydrospiro[indene-2,3′-pyrrolidine]-5-carboxamide], the IC50 was no more than 10 nM.

With `O=C(NO)c1ccc2c(c1)C[C@]1(CCN(Cc3ccccc3)C1=O)C2` [Compound I-12, (S)-1′-benzyl-N-hydroxy-2′-oxo-1,3-dihydrospiro[indene-2,3′-pyrrolidine]-5-carboxamide], the IC50 is 10 to 50 nM.

For the compound `O=C(NO)c1ccc2c(c1)C[C@@]1(CCN(c3ccccc3)C1=O)C2` [Compound I-13, (R)—N-hydroxy-2′-oxo-1′-phenyl-1,3-dihydrospiro[indene-2,3′-pyrrolidine]-5-carboxamide], the concentration for half-maximal inhibition (IC50) was in the range of 10 to 50 nM.

Consider `O=C(NO)c1ccc2c(c1)C[C@]1(CCN(c3ccccc3)C1=O)C2` [Compound I-14, (S)—N-hydroxy-2′-oxo-1′-phenyl-1,3-dihydrospiro[indene-2,3′-pyrrolidine]-5-carboxamide], for which the IC50 fell in the range of 10 to 50 nM.

As for `O=C(NO)c1ccc2c(c1)C[C@@]1(CCN(c3ccc(F)cc3)C1=O)C2` [Compound I-15, (R)-1′-(4-fluorophenyl)-N-hydroxy-2′-oxo-1,3-dihydrospiro[indene-2,3′-pyrrolidine]-5-carboxamide], the 50% inhibitory concentration (IC50) lay within 10 to 50 nM.

One may read the IC50 as the concentration that inhibits the measured activity by half.
